Data published in patent US20150328329A1, “LIGANDS THAT TARGET HCV-E2 BINDING SITES ON CD81 AND THERAPEUTIC METHODS USING THEM” (American University of Cairo, priority 2012, published 2015).

Tests used:
[1] = molecular target: T1, recombinant CD81-LEL (GST tag) (Homo sapiens, UniProt P60033); assay: Surface plasmon resonance (Biacore T200) binding of ligands to immobilized recombinant CD81-LEL; conditions: Table A; ligand 600 μM in PBS-0.05% Tween-80; CD81-LEL-GST on CM5 chip
T1 construct: the large extracellular loop of CD81 (CD81-LEL); gift of Dr. Shoshana Levy, Stanford University
T1 sequence (P60033 113-201 limits assumed): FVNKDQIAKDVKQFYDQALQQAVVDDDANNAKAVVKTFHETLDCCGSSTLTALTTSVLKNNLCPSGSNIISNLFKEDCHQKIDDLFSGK
Description: SPR analysis was performed using a Biacore T200 workstation (GE Healthcare, NJ, USA). A recombinant form of the CD81-LEL protein with a GST tag (generously provided by Dr. Shoshana Levy, Stanford University) was used to confirm, using an established experimental technique, the binding of several ligands to the protein. Briefly, 10 μM CD81-LEL-GST diluted into 10 mM Na-Acetate buffer pH 4.5 was immobilized for 15 min at a flow speed of 5 μl/min onto a CM5 sensor chip using amine-coupling (EDC-NHS). Approximately 20,000 RU of protein were immobilized on the chip. The ligands were prepared as 600 μM solutions in PBS-0.05% Tween-80 (the running buffer) and they were introduced to the protein using a pre-programmed 3 minute association and 1 minute dissociation interval.
The binding affinity of the most tightly bound ligand in the group selected for ligand conjugate design (Ligand 1) was estimated using data collected from a series of SPR binding experiments conducted at different ligand concentrations. To obtain the kinetic and affinity data needed to estimate the Kd, the original ligand was diluted serially with running buffer to produce seven different ligand concentrations: 1024 μM, […], 256 μM, 128 μM, 64 μM, 32 μM and 0 μM. Data were fitted using a monovalent binding model.
A total of 36 ligands were tested experimentally using surface Plasmon resonance (on a Biacore T200 instrument) to identify which of the molecules calculated to bind to Sites 1 and 2 on CD81 actually bind to a recombinant form of the protein (CD81-LEL). Twenty-six of the molecules provided a positive change in response units (RU) upon introduction to a chip containing the immobilized protein (Table A), indicating the ligands bound to the protein. The measured responses for the ligands that bound varied from 2.3 to 78.4 RU. Those ligands providing the largest responses tended to be molecules that were calculated to bind more deeply inside cavities in Site 1 (ligands 30930, 98026, 7436, 5069), Site 2 (ligands 127947, 38743) or Site 4 (ligands 78623, 16631).
Experimental analysis of ligand binding to recombinant CD81 LEL. Forty ligands calculated by AutoDock to bind to sites 1 and 2 on CD81-LEL were tested experimentally using surface Plasmon resonance as described in the Materials and Methods section. Ligand code numbers are those assigned by the National Cancer Institute. […] Because the binding experiments were performed by passing the same concentration of each ligand sequentially across the same protein coated chip using both techniques, the magnitude of the responses can be used to provide an approximate ranking of binding strength.

[2] = molecular target: T2, native CD81 on Raji cells (Homo sapiens, UniProt P60033); assay: Competition assay: inhibition of FITC-labeled JS-81 anti-CD81 antibody binding to native CD81 on live Raji cells (flow cytometry); type: cell-based
T2 construct: endogenous in cells; host or cells: Raji (human B cell line)
T2 sequence (P60033 1-236): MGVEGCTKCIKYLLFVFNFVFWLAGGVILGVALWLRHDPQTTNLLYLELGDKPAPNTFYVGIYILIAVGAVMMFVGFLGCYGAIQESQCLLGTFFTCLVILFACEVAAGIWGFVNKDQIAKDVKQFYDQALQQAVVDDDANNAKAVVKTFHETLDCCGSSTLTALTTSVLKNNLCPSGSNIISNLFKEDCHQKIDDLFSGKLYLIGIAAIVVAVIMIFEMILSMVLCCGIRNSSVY
Text: A subset of these ligands and some of those listed in the patent have been tested to identify those ligands that bind to the correct region of the CD81 protein and for binding to native CD81 on living cells (a Raji cell line). This assay tests three concentrations of the ligand to determine if the ligand is capable of inhibiting the binding of an antibody called JS-81. This antibody is known to bind to the region of the CD81 protein we have targeted. If the ligand decreases JS-81 binding as you increase the concentration of the ligand, it is 1) binding to native CD81 on the Raji cells and 2) it is binding to the correct region of the protein.
For antibody neutralization assay Raji cells were used, a human B cell line that expressed high amounts of CD81 on the surface (data not shown). Cells were grown in RPMI medium (10% FCS, 1% penicillin/streptomycin, 1% L-glutamine, 1% non-essential amino acids, 1% sodium pyruvate, pH 7.4, at 37° C. with 5% CO2). 2×10^5 cells were incubated with or without different concentrations (50 μM, 100 μM, 400 μM and 1 mM) of indicated inhibitor for 20 min at room temperature, subsequently 1 ul (16 ng/μl) of FITC-labeled anti CD81 antibody (BD Pharmingen, 551108) was added to the cells and incubated for 20 min (antibody titration was performed to obtain a working dilution range, data not shown). Cells were washed and analyzed by flow cytometry using fluorescence-activated cell sorting (FACS) (BD FACSCalibur, software: Cell Quest Pro). Mean Fluorescence Intensity MFI was calculated using Flowjo software (TreesStar, www.flowjo.com).

recombinant CD81-LEL = molecular target: T3, recombinant CD81-LEL (Homo sapiens, UniProt P60033); assay: Dual polarization interferometry (DPI) binding of ligands to immobilized recombinant CD81-LEL; conditions: for DPI Radians: Table A; for DPI Radians / DPI Response (Radians), ligand added to CD81 protein: ligand 500 μM in PBS, 2.5% DMSO; for DPI Response (Radians), ligand added to CD81 protein: Table B and b111; for DPI Binding Response (Radians), molecule added alone to CD81: Table D, single molecule added to CD81
T3 construct: the large extracellular loop of CD81 (CD81-LEL); GST; His; Shoshana Levy Lab, Stanford (gift)
T3 sequence (P60033 113-201 limits assumed): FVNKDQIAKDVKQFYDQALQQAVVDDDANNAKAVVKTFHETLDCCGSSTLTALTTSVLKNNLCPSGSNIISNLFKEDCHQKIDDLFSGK
Description: DPI analyses were performed using an AnaLight 4D workstation (Farfield Group, Manchester UK). The recombinant CD81-LEL was immobilized onto a Thiol AnaChip using Sulfo-GMBS as a cross-linker in PBS running buffer. Non-specific sites were blocked with digested casein. TRIS was used to cap the cross-linker, blocking any additional amines from covalently binding to the cross-linker on the chip surface. Ligands were prepared as a 20 mM stock solutions in DMSO. Each ligand was diluted to a final concentration of 500 μM in PBS just prior to injection (final DMSO concentration was 2.5%). PBS and DMSO mixed in the same ratio were used as a blank. Data collection and analysis were performed using the AnaLight Resolver.
Six of the more interesting ligand candidates being considered for use in creating a ligand conjugate (three calculated to bind to Site 1 and three calculated to bind to Site 2) were further tested to confirm binding using a second experimental technique, dual polarization interferometry. The results, shown in FIG. 6, confirmed that all six ligands bound to the protein. The relative rank in strength of binding of the Site 1 and 2 ligands, as determined by DPI, were also similar to the ranking obtained by SPR or calculated by AutoDock for the majority of the ligands. […] One reason for this observed difference in the DPI response may relate to conformational changes in the protein that occur when the small molecules bind. The change in radians measured using DPI when a ligand binds to a protein is known to result from a combination of two effects: 1) the resulting increase in mass/volume when the ligand binds to the protein on the surface of the chip and 2) a conformational change in the protein induced by the binding of the ligand. Molecules binding in the deeper cavity would be expected to have more and stronger contacts with the protein than ligands sitting exposed to solvent in shallow cavities or surface binding sites. […]

HCV E2 binding to CD81 = molecular target: T4, HCV E2 binding to CD81 (Homo sapiens, UniProt P60033); assay: DPI assay of ligands blocking HCV E2 protein binding to CD81; conditions: Table D; E2 Protein alone gives 4.1402; reduced response = blocking
T4 sequence (P60033 113-201 limits assumed): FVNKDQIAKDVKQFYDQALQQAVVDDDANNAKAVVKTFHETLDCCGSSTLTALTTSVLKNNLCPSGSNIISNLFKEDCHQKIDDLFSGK
Description: A subset of the ligands identified to bind to CD81 have been tested using Dual Polarization Interferometry (DPI) to determine if the ligands themselves are effective in blocking E2 binding to CD81. The experiments are conducted by first immobilizing one of the proteins (HCV E2 or CD81) on the chip used to perform the assay. The other protein is then introduced to the chip and the amount of binding is measured. This protein is then washed off and the protein and one of the ligands are then introduced to the chip. If the ligand blocks/interferes with the binding of the two proteins, the DPI response (measured in Radians) is reduced compared to when the protein is added alone. After the measurement is made, the protein and ligand are washed off and the next combination of the protein and a different ligand are added to the chip and the DPI response is measured. Similar experiments can be performed in which the protein is mixed with two or more ligands to see if they have a greater effect when combined.
Experiments have been conducted with either CD81 or HCV E2 immobilized on the chip. Six ligands have been tested to date.

Molecule: COc1cc(-c2ccc(Nc3ccccc3C(=O)O)c(OC)c2)ccc1Nc1ccccc1C(=O)O [Ligand 73735]
- SPR Response Units [1]: 1957.8 RU
- Inhibition of JS-81 Binding (%) ([2]; 50 μM ligand): 0%
- Inhibition of JS-81 Binding (%) ([2]; 100 μM ligand): 0%
- Inhibition of JS-81 Binding (%) ([2]; 400 μM ligand): 24%

Molecule: NC(=O)CCC(C(=O)O)N1C(=O)c2ccc(O)cc2C1=O (stereo not shown) [Ligand 78623]
- SPR Response Units [1]: 54.5 RU

Molecule: O=C(O)/C=C\C(=O)Nc1nccs1 [Ligand 80807]
- DPI Radians (recombinant CD81-LEL): 0.1909 Radians

Molecule: Cn1c(=O)c2[nH]c(CNc3ccc(C(=O)O)cc3)nc2n(C)c1=O [Ligand 81750]
- DPI Radians (recombinant CD81-LEL): 0.4360 Radians

Molecule: O=C(Cn1ccc(=O)[nH]c1=O)Nc1ccc(C(=O)O)c(O)c1 [Ligand 93033]
- SPR Response Units [1]: 16.9 RU
- DPI Response (Radians), ligand added to CD81 protein (recombinant CD81-LEL): 0.7245 Radians
- DPI Binding Response (Radians), molecule added alone to CD81 (recombinant CD81-LEL): 0.7245 Radians
- DPI Binding Response (Radians), E2 Protein added to CD81 together with ligand(s) (HCV E2 binding to CD81): 0.2546 Radians
- Inhibition of JS-81 Binding (%) ([2]; 50 μM ligand): 0%
- Inhibition of JS-81 Binding (%) ([2]; 100 μM ligand): 0%
- Inhibition of JS-81 Binding (%) ([2]; 400 μM ligand): 16%

Molecule: CC(C)=CCC1=C(OCC(=O)O)C(=O)c2ccccc2C1=O [Ligand 98026]
- SPR Response Units [1]: 50 RU
- DPI Response (Radians), ligand added to CD81 protein (recombinant CD81-LEL): 1.1918 Radians
- Inhibition of JS-81 Binding (%) ([2]; 50 μM ligand): 0%
- Inhibition of JS-81 Binding (%) ([2]; 100 μM ligand): 0%
- Inhibition of JS-81 Binding (%) ([2]; 400 μM ligand): 21%

Molecule: CCCNC1=C(C)C(=O)C2=C(C1=O)C(COC(N)=O)C1(OC)C3NC3CN21 (stereo not shown) [Ligand 123115]
- SPR Response Units [1]: 34.5 RU

Molecule: NC(=S)Nc1cccc(Cl)c1 [Ligand 164965]
- DPI Radians (recombinant CD81-LEL): 0.7494 Radians
- DPI Response (Radians), ligand added to CD81 protein (recombinant CD81-LEL): 0.7494 Radians

Molecule: COc1cc(CCC(=O)O)on1 [Ligand 303800]
- SPR Response Units [1]: 7.8 RU

Molecule: COc1ccccc1/C=C(\C#N)C(=O)O [Ligand 638134]
- SPR Response Units [1]: 25 RU

B1: E2 Protein: HCV E2 envelope glycoprotein that binds CD81 (protein)
chain: QTHITGGSTAHAAAGLANLFSMGPKQDIRLINTNGSWHINRTALNCNESLNTGWVAGLLYYNKFNSSGCSERLASCRPLTDFAQGWGPISYANGSGPDQRPYCWHYPPRPCGIVPAKSVCGPVYCFTPSPVVVGTTDRSGAPTYSWGENETDVFILNNTRPPLGNWFGCTWMNSSGFTKVCGAPPCVIGGVGNNTLRCPTDCFRKHPEATYSRCGSGPWITPRCLVNYPYRLWHYPCTINYTIFKVRMYVGGVEHRLEAACNWTRGERCDLEDRDRSELSPLLLSTTQWQVLPCSFTTLPALSTGLIHLHQNIVDVQYLYGVGSSIASWAIKWDYVVLLFLLLADARVCSCLWMMLLISQAEA
- DPI Binding Response (Radians), molecule added alone to CD81 (recombinant CD81-LEL): 4.1402 Radians
